Data from PubChem BioAssay AID330 (DTP/NCI, 2004).
Inconclusive results and toxic doses are left out. The calls were made as follows: active = survival T/C of 150% or more; inactive = T/C below 125% in these data.

System: P388 leukemia ip, CD2F1 mice, survival T/C
Assay: NCI In Vivo Anticancer Drug Screen. Data for tumor model P388 Leukemia (intraperitoneal) in CD2F1 (CDF1) mice
Conditions: endpoint: median survival time, higher = longer survival
How it was run: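 Mice carrying the transplanted tumor received test compound or vehicle. Survival was recorded in each group, and the value is the treated-group measurement divided by that of the vehicle-treated control group.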

[1] = dose: 50.0 mg/kg/injection, schedule: Q01DX005 (ip), vehicle: Klucel (hydroxypropylcellulose) (HPC)
[2] = dose: 100.0 mg/kg/injection, schedule: Q01DX005 (ip), vehicle: Klucel (hydroxypropylcellulose) (HPC)
[3] = dose: 200.0 mg/kg/injection, schedule: Q01DX005 (ip), vehicle: Klucel (hydroxypropylcellulose) (HPC)
[4] = dose: 50.0 mg/kg/injection, schedule: Q01DX009 (ip), vehicle: saline
[5] = dose: 100.0 mg/kg/injection, schedule: Q01DX009 (ip), vehicle: saline
[6] = dose: 200.0 mg/kg/injection, schedule: Q01DX009 (ip), vehicle: saline
[7] = dose: 50.0 mg/kg/injection, schedule: Q01DX009 (ip), vehicle: Klucel (hydroxypropylcellulose) (HPC)
[8] = dose: 100.0 mg/kg/injection, schedule: Q01DX009 (ip), vehicle: Klucel (hydroxypropylcellulose) (HPC)
[9] = dose: 200.0 mg/kg/injection, schedule: Q01DX009 (ip), vehicle: Klucel (hydroxypropylcellulose) (HPC)
[10] = dose: 50.0 mg/kg/injection, schedule: Q01DX005 (ip), vehicle: saline with Tween-80
[11] = dose: 100.0 mg/kg/injection, schedule: Q01DX005 (ip), vehicle: saline with Tween-80
[12] = dose: 50.0 mg/kg/injection, schedule: Q01DX009 (ip), vehicle: saline with Tween-80
[13] = dose: 100.0 mg/kg/injection, schedule: Q01DX009 (ip), vehicle: saline with Tween-80
[14] = dose: 200.0 mg/kg/injection, schedule: Q01DX009 (ip), vehicle: saline with Tween-80
[15] = dose: 25.0 mg/kg/injection, schedule: Q04DX003 (ip), vehicle: saline with Tween-80
[16] = dose: 50.0 mg/kg/injection, schedule: Q04DX003 (ip), vehicle: saline with Tween-80
[17] = dose: 100.0 mg/kg/injection, schedule: Q04DX003 (ip), vehicle: saline with Tween-80
[18] = dose: 100.0 mg/kg/injection, schedule: Q04DX002 (ip), vehicle: Klucel (hydroxypropylcellulose) (HPC)
[19] = dose: 200.0 mg/kg/injection, schedule: Q04DX002 (ip), vehicle: Klucel (hydroxypropylcellulose) (HPC)
[20] = dose: 400.0 mg/kg/injection, schedule: Q04DX002 (ip), vehicle: Klucel (hydroxypropylcellulose) (HPC)
[21] = dose: 200.0 mg/kg/injection, schedule: Q01DX005 (ip), vehicle: saline with Tween-80

Measured: T/C

CCCCCCn1c(Cl)c(C(=O)O)c2ccccc21
inactive: dose: 100.0 mg/kg/injection, schedule: Q04DX002 (ip), vehicle: saline with Tween-80 99 % of control | dose: 200.0 mg/kg/injection, schedule: Q04DX002 (ip), vehicle: saline with Tween-80 97 % of control | dose: 400.0 mg/kg/injection, schedule: Q04DX002 (ip), vehicle: saline with Tween-80 95 % of control

CCOC(=O)Cc1oc2c(C(C)=O)c(O)c(C)c(O)c2c1C
inactive: [1] 88 % of control | [2] 89 % of control | [3] 87 % of control

CCCCCCCCCCCCCCCCCC(=O)CC(=O)C(F)(F)F
inactive: [4] 100 % of control | [5] 99 % of control | [6] 99 % of control

C/C(=N\O)C1(O)CCCCC1
inactive: [7] 108 % of control | [8] 108 % of control | [9] 105 % of control | dose: 400.0 mg/kg/injection, schedule: Q01DX009 (ip), vehicle: Klucel (hydroxypropylcellulose) (HPC) 113 % of control

CC(=O)C[n+]1ccccc1Sc1ccc(Cl)cc1
inactive: [10] 111 % of control | [11] 111 % of control

O=S(=O)(O)C(O)C(F)(F)C(F)(F)C(F)(F)F (stereo unspecified)
inactive: dose: 60.0 mg/kg/injection, schedule: Q01DX005 (ip), vehicle: saline 98 % of control | dose: 120.0 mg/kg/injection, schedule: Q01DX005 (ip), vehicle: saline 94 % of control | dose: 240.0 mg/kg/injection, schedule: Q01DX005 (ip), vehicle: saline 99 % of control

CNC(=S)N/N=C/c1ccccc1
inactive: dose: 25.0 mg/kg/injection, schedule: Q01DX009 (ip), vehicle: saline with Tween-80 110 % of control | [12] 112 % of control | [4] 100 % of control | [13] 117 % of control | [5] 105 % of control | [14] 100 % of control | [6] 100 % of control

Cc1nccc2c(C)c3c(cc12)c1ccccc1n3C
inactive: dose: 5.0 mg/kg/injection, schedule: Q01DX005 (ip), vehicle: saline 107 % of control | dose: 10.0 mg/kg/injection, schedule: Q01DX005 (ip), vehicle: saline 107 % of control | dose: 20.0 mg/kg/injection, schedule: Q01DX005 (ip), vehicle: saline 99 % of control

CC(C)CC(NC(=O)CCNC(=O)OCc1ccccc1)C(=O)O (stereo unspecified)
inactive: [1] 100 % of control | [2] 101 % of control | [3] 91 % of control

COc1ccccc1NC(=O)C(N=Nc1ccc(-c2nc3ccc(C)c(S(=O)(=O)O)c3s2)cc1S(=O)(=O)O)C(C)=O (stereo unspecified)
inactive: [4] 104 % of control | [5] 105 % of control | [6] 109 % of control

COc1ccc(/C=C2\C(=O)N(Cc3ccco3)SC2=S)c(OC)c1OC
inactive: [12] 90 % of control | [13] 90 % of control | [14] 106 % of control

CC(=O)OC1CC(n2cc(C)c(=O)[nH]c2=O)OC1COP(=O)(N1CC1)N1CC1 (stereo unspecified)
inactive: [15] 104 % of control | [16] 112 % of control | [17] 124 % of control

O=S=NSc1c(F)c(F)c(F)c(F)c1F
inactive: [10] 104 % of control | [11] 111 % of control

CCN(CC)C(=O)C(C)C1=C(C)C(N(CC)CC)=NS(=O)(=O)c2ccccc21 (stereo unspecified)
inactive: [18] 102 % of control | [19] 90 % of control | [20] 109 % of control

COC1/C=C/OC2(C)Oc3c(C)c(O)c4c(O)c(c(C5OCCO5)c(O)c4c3C2=O)NC(=O)/C(C)=C\C=C\C(C)C(O)C(C)C(O)C(C)C(OC(C)=O)C1C (stereo unspecified)
inactive: [15] 96 % of control | [16] 96 % of control | [17] 96 % of control | dose: 200.0 mg/kg/injection, schedule: Q04DX003 (ip), vehicle: saline with Tween-80 104 % of control

O=S1(=O)C2C=CC1C(Br)C(Br)CC2 (stereo unspecified)
inactive: dose: 12.5 mg/kg/injection, schedule: Q01DX009 (ip), vehicle: Klucel (hydroxypropylcellulose) (HPC) 102 % of control | dose: 25.0 mg/kg/injection, schedule: Q01DX009 (ip), vehicle: Klucel (hydroxypropylcellulose) (HPC) 100 % of control | [7] 89 % of control | [8] 96 % of control | [9] 98 % of control

CCCCCCCCCCCCCCCC(CCCCCC)CCCCCC
inactive: dose: 50.0 mg/kg/injection, schedule: Q01DX001 (ip), vehicle: saline sonified 113 % of control | dose: 100.0 mg/kg/injection, schedule: Q01DX001 (ip), vehicle: saline sonified 100 % of control | dose: 200.0 mg/kg/injection, schedule: Q01DX001 (ip), vehicle: saline sonified 109 % of control

CC(C)Cn1c(Cl)c(C=O)c2ccccc21
inactive: [18] 101 % of control | [19] 97 % of control | [20] 90 % of control

CC1(C)O[C@H]2CC(=O)OC[C@]23[C@H]2CC[C@@]4(C)C(c5ccoc5)OC(=O)[C@H]5O[C@]54[C@]2(C)[C@@H](OC(=O)CCl)C[C@@H]13 (stereo partly specified)
inactive: dose: 0.5 mg/kg/injection, schedule: Q01DX009 (ip), vehicle: saline + alcohol 113 % of control | dose: 1.0 mg/kg/injection, schedule: Q01DX009 (ip), vehicle: saline + alcohol 111 % of control

c1ccc(CN2COCO[C@H]3CCC[C@@H]32)cc1
inactive: [1] 107 % of control | [2] 104 % of control

COc1cc(C/C(=C/c2ccc(OC)c3occc23)[N+](=O)[O-])cc(OC)c1OC
inactive: [10] 98 % of control | [11] 107 % of control | [21] 113 % of control

CCOc1nc(N)nc(C)c1N=Nc1ccc(Cl)cc1Cl
inactive: dose: 60.0 mg/kg/injection, schedule: Q01DX005 (ip), vehicle: Klucel + Tween-80 100 % of control | dose: 120.0 mg/kg/injection, schedule: Q01DX005 (ip), vehicle: Klucel + Tween-80 110 % of control

O=CC1CCC(c2ccc3ccccc3c2)O1 (stereo unspecified)
inactive: dose: 60.0 mg/kg/injection, schedule: Q01DX005 (ip), vehicle: saline with Tween-80 106 % of control | dose: 120.0 mg/kg/injection, schedule: Q01DX005 (ip), vehicle: saline with Tween-80 114 % of control | dose: 240.0 mg/kg/injection, schedule: Q01DX005 (ip), vehicle: saline with Tween-80 114 % of control

COC1=CC(=O)C(Cc2ccc3c(c2)OCO3)=CC1=O
inactive: dose: 2.5 mg/kg/injection, schedule: Q01DX009 (ip), vehicle: saline with Tween-80 101 % of control | dose: 5.0 mg/kg/injection, schedule: Q01DX009 (ip), vehicle: saline with Tween-80 99 % of control | dose: 10.0 mg/kg/injection, schedule: Q01DX009 (ip), vehicle: saline with Tween-80 101 % of control

COc1cc2cc(/C(C)=N/OCC3CO3)c(Cl)nc2cc1OC (stereo unspecified)
inactive: [10] 96 % of control | [11] 93 % of control | [21] 92 % of control

OC(CN1CCCCC1)c1ccc(/C=C/c2ccc(Cl)cc2)cc1 (stereo unspecified)
inactive: dose: 6.25 mg/kg/injection, schedule: Q01DX009 (ip), vehicle: saline 100 % of control | dose: 12.5 mg/kg/injection, schedule: Q01DX009 (ip), vehicle: saline 95 % of control | dose: 25.0 mg/kg/injection, schedule: Q01DX009 (ip), vehicle: saline 96 % of control
